Like-named read-outs stand apart in the source and are kept apart here.
Columns and labels:
Test in all cases: Test A postemergence
Format in all cases: in vivo
[1] = system: blackgrass (Alopecurus myosuroides); conditions: Alopecurus myosuroides, post-emergence, 240 h, read-out: Plant response rating, Blackgrass; for pest or weed control at 125 g/ha: 125 g ai/ha, Postemergence, visual injury after approximately 10 d, 0 to 100 scale where 0 is no effect and 100 is complete control; for pest or weed control at 500 g/ha: 500 g ai/ha, postemergence, visual injury, 0 to 100 scale (0 no effect, 100 complete control), approx. 10 d
Outline: (§1)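 Visual injury, scored on a 0–100 scale relative to untreated controls, was recorded about 10 d after application. Treatments were a preemergence soil spray over planted seeds or a postemergence spray on plants at the one- to two-leaf stage, 2 to 10 cm tall, all in loam soil–sand blend in the greenhouse.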

[2] = system: barnyardgrass (Echinochloa crus-galli); conditions: Echinochloa crus-galli, post-emergence, 240 h, read-out: Plant response rating, Barnyardgrass; for pest or weed control at 125 g/ha: 125 g ai/ha, Postemergence, visual injury after approximately 10 d, 0 to 100 scale where 0 is no effect and 100 is complete control; for pest or weed control at 500 g/ha: 500 g ai/ha, postemergence, visual injury, 0 to 100 scale (0 no effect, 100 complete control), approx. 10 d
Outline: as §1

[3] = system: corn (Zea mays); conditions: Zea mays, post-emergence, 240 h; for Corn plant response rating (crop injury, 0 = no effect, 100 = complete kill) at 125 g/ha: 125 g ai/ha, Postemergence, visual injury after approximately 10 d, 0 to 100 scale where 0 is no effect and 100 is complete control; for Corn plant response rating (crop injury, 0 = no effect, 100 = complete kill) at 500 g/ha: 500 g ai/ha, postemergence, visual injury, 0 to 100 scale (0 no effect, 100 complete control), approx. 10 d
Outline: as §1

[4] = system: Kochia (Kochia scoparia); conditions: Bassia scoparia, post-emergence, 240 h; for pest or weed control at 125 g/ha: 125 g ai/ha; for pest or weed control at 500 g/ha: 500 g ai/ha, visual injury, 0 to 100 scale (0 no effect, 100 complete control)
Outline: as §1

[5] = system: pigweed (Amaranthus retroflexus); conditions: Amaranthus retroflexus, post-emergence, 240 h; for pest or weed control at 125 g/ha: 125 g ai/ha; for pest or weed control at 500 g/ha: 500 g ai/ha, visual injury, 0 to 100 scale (0 no effect, 100 complete control)
Outline: as §1

[6] = system: Galium (catchweed bedstraw, Galium aparine); conditions: Galium, post-emergence, 240 h; for pest or weed control at 125 g/ha: 125 g ai/ha; for pest or weed control at 500 g/ha: 500 g ai/ha, visual injury, 0 to 100 scale (0 no effect, 100 complete control)
Outline: as §1

[7] = Postemergence, visual injury after approximately 10 d, 0 to 100 scale where 0 is no effect and 100 is complete control, read-out: Plant response rating, Kochia
[8] = postemergence, approx. 10 d, read-out: Plant response rating, Kochia
[9] = Postemergence, visual injury after approximately 10 d, 0 to 100 scale where 0 is no effect and 100 is complete control, read-out: Plant response rating, Pigweed
[10] = postemergence, approx. 10 d, read-out: Plant response rating, Pigweed
[11] = Postemergence, visual injury after approximately 10 d, 0 to 100 scale where 0 is no effect and 100 is complete control, read-out: Plant response rating, Galium
[12] = postemergence, approx. 10 d, read-out: Plant response rating, Galium
[13] = postemergence, visual injury on 0 to 100 scale (0 no effect, 100 complete control), approx. 10 d, read-out: Kochia plant response rating
[14] = postemergence, visual injury on 0 to 100 scale (0 no effect, 100 complete control), approx. 10 d, read-out: Pigweed plant response rating
[15] = postemergence, visual injury on 0 to 100 scale (0 no effect, 100 complete control), approx. 10 d, read-out: Galium plant response rating

Structure (SMILES) | pest or weed control at 125 g/ha [1] [%] | pest or weed control at 500 g/ha [1] [%] | pest or weed control at 125 g/ha [2] [%] | pest or weed control at 500 g/ha [2] [%] | Corn plant response rating (crop injury, 0 = no effect, 100 = complete kill) at 125 g/ha [3] [%] | Corn plant response rating (crop injury, 0 = no effect, 100 = complete kill) at 500 g/ha [3] [%] | pest or weed control at 125 g/ha [4, 7] [%] | pest or weed control at 500 g/ha [4, 8] [%] | pest or weed control at 125 g/ha [5, 9] [%] | pest or weed control at 500 g/ha [5, 10] [%] | pest or weed control at 125 g/ha [6, 11] [%] | pest or weed control at 500 g/ha [6, 12] [%] | pest or weed control at 125 g/ha [4, 13] [%] | pest or weed control at 125 g/ha [5, 14] [%] | pest or weed control at 125 g/ha [6, 15] [%]
Cc1ccc([C@H]2CN(C)C(=O)[C@@H]2C(=O)Nc2cccc(F)c2F)cc1Cl [Compound 1013] | 0 | 40 | 90 | 90 | 80 | 90 | 40 | 60 | 0 | 40 | 70 | 70 |  |  | 
COc1ccc([C@H]2CN(C)C(=O)[C@@H]2C(=O)Nc2cccc(F)c2F)cc1F [Compound 1021] | 20 | 50 | 100 | 100 | 60 | 80 | 70 | 70 | 0 | 50 | 50 | 70 |  |  | 
Cc1cc([C@H]2CN(C)C(=O)[C@@H]2C(=O)Nc2cccc(F)c2F)cc(C)c1Br [Compound 1024] | 0 | 20 | 90 | 90 | 70 | 70 | 50 | 60 | 30 | 50 | 60 | 60 |  |  | 
O=C1NC[C@H](c2ccc3c(c2)OCO3)[C@H]1C(=O)Nc1ccc(F)c(F)c1F [Compound 1027] | 0 | 40 | 70 | 90 | 0 | 0 |  | 30 |  | 0 |  | 70 | 0 | 0 | 50
CN1CC[C@H](c2ccccc2)[C@@H](C(=O)Nc2ccccc2F)C1=O [Compound 1032] | 0 | 0 | 0 | 0 | 0 | 0 |  | 0 |  | 0 |  | 0 | 0 | 0 | 0
